Test results from patent US20150099774A1, “Pyrido [3,4-C] [1,9] phenanthroline and 11, 12 dihydropyrido [3,4-C] [1,9] phenanthroline derivatives and the use thereof, particularly for treating cancer” (CHRISTIAN-ALBRECHTS-UNIVERSITAET ZU KIEL, priority 2012, published 2015).

System: 60 tumor cell lines
Experiment: NCI 5 dose assay, dose-response (GI50, MG_MID)
Format: cell-based, human
Details: for GI50: Homo sapiens, calculated from mean graph midpoint; for GI50 / MG_MID (mean-graph midpoint, mean of the logarithms GI50 values): all 60 cell lines; for MG_MID (mean-graph midpoint, mean of the logarithms GI50 values): 5 concentrations
Text: It has been shown in the experiments carried out according to the present invention that the above-described phenanthroline derivates have antitumoral properties. Due to their structural similarity it is to be assumed that they have also antimicrobial, antifungal, antiviral and anti-inflammatory properties like the benzo[c]phenanthridines. For investigating the pharmacological properties the compounds of general formulas I and II, as well as compounds of the substance class III were investigated in an “in vitro anti-tumor screening” of the National Cancer Institute (NCI), Bethesda, Md., USA. 60 different human pathogenic tumor cell lines were tested, which originate from nine cancer types (leukemia, non-small cell lung carcinoma, colon cancer, CNS cancer, melanoma, ovarian cancer, renal cancer, prostate cancer, breast cancer). For determining the efficacy, the tumor cells are exposed to the compounds for two days and thereafter the growth inhibition is indirectly determined through the determination of the protein biomass with sulforhodamine B (SRB). Untreated cultures serve as reference.
Furthermore, it can be seen from tables I and II that the here tested phenanthrolin derivatives according to the present invention have selectivities for certain tumor types. The most marked growth inhibitory effect is for tumor cells of leukemia. Furthermore, a degree of selectivity for tumor cells of melanoma and mamma carcinoma (breast cancer) can be seen. […] The GI50 (growth inhibition 50%) describes here the concentration of the test substance required for inhibiting cell growth by 50%. […] Develop. Res., 34, (1995) 91-109,]
Exemplary for 6-amino-11-(3-bromophenyl)-11,12-dihydropyrido[3,4-c][1,9] phenanthrol are the dose-response curves shown in FIGS. 1 to 9. The nine different Figures include the various types of cancer. The percentage of growth, depending on the concentration of the compound is plotted (as log10 of the molar concentrations). The individual curves for each type of cancer are different cell lines of this type of cancer, which appear as legends in their usual abbreviations. Horizontal lines in the Figures denote percent growth +100, +50, 0, −50, −100. 100% growth means e.g. no difference to growth after two days without added substance.

Structure (SMILES)	GI50 [µM]	MG_MID (mean-graph midpoint, mean of the logarithms GI50 values)	percent growth versus concentration (dose-response curves, FIGS. 1 to 9) (nine cancer types, 5 dose assay)
Nc1cc2c(c3cnccc13)N(c1cccc(Cl)c1)Cc1cnccc1-2 [P16, 6-amino-11-(3-chlorophenyl)-11,12 dihydropyrido-[3,4-c][1,9]phenanthroline]	3.8	−5.42	
Nc1cc2c(c3cnccc13)N(c1cccc(Br)c1)Cc1cnccc1-2 [P5, 6-amino-11-(3-bromophenyl)-11,12-dihydro-pyrido-[3,4-c][1,9]phenanthroline]	2.69	−5.57	with increasing concentrations of the substance, the percent growth decreases
O=C1CC2=C(c3cnccc31)N(c1cccc(Br)c1)Cc1cnccc12 [P5-O, 11-(3-bromophenyl)-6-oxo-5,6,11,12-tetrahydropyrido[3,4-c][1,9]phenanthroline]	8.51	−5.07	
COc1cc2c(ccc3c4cc(OC)c(OC)cc4c[n+](C)c23)cc1O [Fagaronine, reference compound]	9.48	−5.00	
Nc1cc2c(c3cnccc13)N(c1ccc(Cl)c(Cl)c1)Cc1cnccc1-2 [P26, 6-amino-11-(3,4-di-chlorophenyl)-11,12-dihydropyrido-[3,4-c][1,9]phenanthroline]	6.02	−5.22	
Nc1cc2c(c3cnccc13)NCc1cnccc1-2 [P4, 6-amino-11,12-dihydropyrido[3,4-c][1,9]phenanthroline]	8.13	−5.09	
